According to ChEMBL document CHEMBL5223149, “The Emerging Landscape of Small-Molecule Therapeutics for the Treatment of Huntington's Disease” (J Med Chem, 2022):
In brackets after ≈: the same amount, converted by molar mass.

Experiments:
[1] = in vivo; conditions: mouse, po
[2] = Solubility of the compound; assay type: physicochemical
[3] = biological target: T1, Protein-glutamine gamma-glutamyltransferase (Homo sapiens, UniProt P21980); assay: Inhibition of TG2 (unknown origin)
T1 sequence (P21980 whole entry): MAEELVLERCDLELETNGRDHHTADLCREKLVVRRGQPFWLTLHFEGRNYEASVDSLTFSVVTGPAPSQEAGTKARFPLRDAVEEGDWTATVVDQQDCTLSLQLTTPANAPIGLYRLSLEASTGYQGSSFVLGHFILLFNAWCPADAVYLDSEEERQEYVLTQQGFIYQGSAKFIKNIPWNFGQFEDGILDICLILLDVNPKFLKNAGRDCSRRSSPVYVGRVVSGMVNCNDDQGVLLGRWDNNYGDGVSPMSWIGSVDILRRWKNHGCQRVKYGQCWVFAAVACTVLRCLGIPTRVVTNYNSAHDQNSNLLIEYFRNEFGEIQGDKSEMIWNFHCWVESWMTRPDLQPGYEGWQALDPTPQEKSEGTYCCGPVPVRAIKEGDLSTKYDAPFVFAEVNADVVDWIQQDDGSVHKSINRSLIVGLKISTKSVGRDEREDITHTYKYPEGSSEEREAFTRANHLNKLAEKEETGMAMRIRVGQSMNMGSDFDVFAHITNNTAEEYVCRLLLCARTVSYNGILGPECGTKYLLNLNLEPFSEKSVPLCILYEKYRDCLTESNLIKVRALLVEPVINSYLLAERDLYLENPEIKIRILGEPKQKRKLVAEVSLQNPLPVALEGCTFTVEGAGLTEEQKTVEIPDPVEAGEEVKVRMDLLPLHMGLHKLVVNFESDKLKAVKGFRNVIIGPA

bioavailability [1]	solubility [2]	IC50 [3]	Structure (SMILES)
68%	58 µg/mL (≈ 158 µM)		O=c1cc(N2CCOCC2)cc(N2CCCCC[C@@H]2Cc2ccccc2)[nH]1
		62 nM	C=CC(=O)NCCCCC(NC(=O)OCc1ccccc1)C(=O)N1CCN(c2ccccc2Cl)CC1 (stereo not drawn)
